Experimental data reported in the supplement of paper PMC10307832.

Tests used:
Assay in all cases: relative viability (nuclei count vs DMSO), 5 days (fraction); higher = more cells survive
[1] = compound: C1=CC2=C(C=C(C(=C2N=C1)O)N=NC3=CC4=C(C=C3)C=C(C=C4)S(=O)(=O)O)S(=O)(=O)O + Cc1cc(Nc2cc(N3CCN(C)CC3)nc(Sc3ccc(NC(=O)C4CC4)cc3)n2)n[nH]1 [Tozasertib] (partner 0.1 µM)
Outline: (§1)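 Cells from lung cancer lines were seeded into 1536-well plates and, one day later, dosed by pin tool. Treatments were either a single drug or a fixed dose of an anchor drug with five library-drug doses (not always all listed) in √10 steps. After 5 days, nuclei were stained in a one-step fixation (final 0.05% Triton X-100, 1% formaldehyde, 1 ug/ml Hoechst) and counted on 4× images, and relative viability is the treated-to-vehicle nuclei ratio, as the median of duplicate plates.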

AT-7519 + Bortezomib = compound: O=C(NC1CCNCC1)c1n[nH]cc1NC(=O)c1c(Cl)cccc1Cl [AT-7519] + CC(C)C[C@H](NC(=O)[C@H](Cc1ccccc1)NC(=O)c1cnccn1)B(O)O [Bortezomib] (partner 0.002 µM)
Outline: as §1

AT-7519 + Foretinib = compound: O=C(NC1CCNCC1)c1n[nH]cc1NC(=O)c1c(Cl)cccc1Cl [AT-7519] + COc1cc2c(Oc3ccc(NC(=O)C4(C(=O)Nc5ccc(F)cc5)CC4)cc3F)ccnc2cc1OCCCN1CCOCC1 [Foretinib] (partner 0.25 µM)
Outline: as §1

AT-7519 + Linsitinib = compound: O=C(NC1CCNCC1)c1n[nH]cc1NC(=O)c1c(Cl)cccc1Cl [AT-7519] + C[C@]1(O)C[C@@H](c2nc(-c3ccc4ccc(-c5ccccc5)nc4c3)c3c(N)nccn32)C1 [Linsitinib] (partner 1 µM)
Outline: as §1

NCI-H661
relative viability ([1]; first compound 0.08 µM): 0.333 | relative viability ([1]; first compound 0.253 µM): 0.347 | relative viability ([1]; first compound 0.8 µM): 0.341 | relative viability ([1]; first compound 2.53 µM): 0.369 | relative viability ([1]; first compound 8 µM): 0.343 | relative viability (AT-7519 + Bortezomib; first compound 0.01 µM): 0.743 | relative viability (AT-7519 + Bortezomib; first compound 0.03162 µM): 0.755 | relative viability (AT-7519 + Bortezomib; first compound 0.3162 µM): 0.786 | relative viability (AT-7519 + Bortezomib; first compound 1 µM): 0.567 | relative viability (AT-7519 + Foretinib; first compound 0.01 µM): 1.05 | relative viability (AT-7519 + Foretinib; first compound 0.03162 µM): 0.875 | relative viability (AT-7519 + Foretinib; first compound 0.3162 µM): 1.05 | relative viability (AT-7519 + Foretinib; first compound 1 µM): 0.468 | relative viability (AT-7519 + Linsitinib; first compound 0.01 µM): 0.46 | relative viability (AT-7519 + Linsitinib; first compound 0.03162 µM): 0.513 | relative viability (AT-7519 + Linsitinib; first compound 0.3162 µM): 0.538 | relative viability (AT-7519 + Linsitinib; first compound 1 µM): 0.343

NCI-H727
relative viability ([1]; first compound 0.08 µM): 0.535 | relative viability ([1]; first compound 0.253 µM): 0.653 | relative viability ([1]; first compound 0.8 µM): 0.87 | relative viability ([1]; first compound 2.53 µM): 0.767 | relative viability ([1]; first compound 8 µM): 0.441 | relative viability (AT-7519 + Bortezomib; first compound 0.01 µM): 0.973 | relative viability (AT-7519 + Bortezomib; first compound 0.03162 µM): 0.837 | relative viability (AT-7519 + Bortezomib; first compound 0.3162 µM): 0.573 | relative viability (AT-7519 + Bortezomib; first compound 1 µM): 0.526 | relative viability (AT-7519 + Foretinib; first compound 0.01 µM): 1.14 | relative viability (AT-7519 + Foretinib; first compound 0.03162 µM): 0.691 | relative viability (AT-7519 + Foretinib; first compound 0.3162 µM): 0.769 | relative viability (AT-7519 + Foretinib; first compound 1 µM): 0.297 | relative viability (AT-7519 + Linsitinib; first compound 0.01 µM): 0.287 | relative viability (AT-7519 + Linsitinib; first compound 0.03162 µM): 0.309 | relative viability (AT-7519 + Linsitinib; first compound 0.3162 µM): 0.163 | relative viability (AT-7519 + Linsitinib; first compound 1 µM): 0.167

NCI-H838
relative viability ([1]; first compound 0.08 µM): 0.238 | relative viability ([1]; first compound 0.253 µM): 0.214 | relative viability ([1]; first compound 0.8 µM): 0.272 | relative viability ([1]; first compound 2.53 µM): 0.285 | relative viability ([1]; first compound 8 µM): 0.266 | relative viability (AT-7519 + Bortezomib; first compound 0.01 µM): 0.644 | relative viability (AT-7519 + Bortezomib; first compound 0.03162 µM): 0.804 | relative viability (AT-7519 + Bortezomib; first compound 0.3162 µM): 0.416 | relative viability (AT-7519 + Bortezomib; first compound 1 µM): 0.0826 | relative viability (AT-7519 + Foretinib; first compound 0.01 µM): 1.07 | relative viability (AT-7519 + Foretinib; first compound 0.03162 µM): 1.02 | relative viability (AT-7519 + Foretinib; first compound 0.3162 µM): 0.886 | relative viability (AT-7519 + Foretinib; first compound 1 µM): 0.527 | relative viability (AT-7519 + Linsitinib; first compound 0.01 µM): 1.03 | relative viability (AT-7519 + Linsitinib; first compound 0.03162 µM): 1.01 | relative viability (AT-7519 + Linsitinib; first compound 0.3162 µM): 0.74 | relative viability (AT-7519 + Linsitinib; first compound 1 µM): 0.149

NCI-H1355
relative viability ([1]; first compound 0.08 µM): 0.629 | relative viability ([1]; first compound 0.253 µM): 0.608 | relative viability ([1]; first compound 0.8 µM): 0.627 | relative viability ([1]; first compound 2.53 µM): 0.595 | relative viability ([1]; first compound 8 µM): 0.641 | relative viability (AT-7519 + Bortezomib; first compound 0.01 µM): 1.26 | relative viability (AT-7519 + Bortezomib; first compound 0.03162 µM): 1.16 | relative viability (AT-7519 + Bortezomib; first compound 0.3162 µM): 1.31 | relative viability (AT-7519 + Bortezomib; first compound 1 µM): 1.29 | relative viability (AT-7519 + Foretinib; first compound 0.01 µM): 0.906 | relative viability (AT-7519 + Foretinib; first compound 0.03162 µM): 0.989 | relative viability (AT-7519 + Foretinib; first compound 0.3162 µM): 1.02 | relative viability (AT-7519 + Foretinib; first compound 1 µM): 0.854 | relative viability (AT-7519 + Linsitinib; first compound 0.01 µM): 0.795 | relative viability (AT-7519 + Linsitinib; first compound 0.03162 µM): 0.737 | relative viability (AT-7519 + Linsitinib; first compound 0.3162 µM): 0.79 | relative viability (AT-7519 + Linsitinib; first compound 1 µM): 0.722

NCI-H1437
relative viability ([1]; first compound 0.08 µM): 0.421 | relative viability ([1]; first compound 0.253 µM): 0.392 | relative viability ([1]; first compound 0.8 µM): 0.407 | relative viability ([1]; first compound 2.53 µM): 0.408 | relative viability ([1]; first compound 8 µM): 0.287 | relative viability (AT-7519 + Bortezomib; first compound 0.01 µM): 0.448 | relative viability (AT-7519 + Bortezomib; first compound 0.03162 µM): 0.514 | relative viability (AT-7519 + Bortezomib; first compound 0.3162 µM): 0.494 | relative viability (AT-7519 + Bortezomib; first compound 1 µM): 0.307 | relative viability (AT-7519 + Foretinib; first compound 0.01 µM): 1.3 | relative viability (AT-7519 + Foretinib; first compound 0.03162 µM): 1.32 | relative viability (AT-7519 + Foretinib; first compound 0.3162 µM): 1.24 | relative viability (AT-7519 + Foretinib; first compound 1 µM): 1.01 | relative viability (AT-7519 + Linsitinib; first compound 0.01 µM): 1.14 | relative viability (AT-7519 + Linsitinib; first compound 0.03162 µM): 1.17 | relative viability (AT-7519 + Linsitinib; first compound 0.3162 µM): 0.81 | relative viability (AT-7519 + Linsitinib; first compound 1 µM): 0.344

NCI-H1651
relative viability ([1]; first compound 0.08 µM): 0.742 | relative viability ([1]; first compound 0.253 µM): 0.727 | relative viability ([1]; first compound 0.8 µM): 0.657 | relative viability ([1]; first compound 2.53 µM): 0.764 | relative viability ([1]; first compound 8 µM): 0.562 | relative viability (AT-7519 + Bortezomib; first compound 0.01 µM): 0.912 | relative viability (AT-7519 + Bortezomib; first compound 0.03162 µM): 0.917 | relative viability (AT-7519 + Bortezomib; first compound 0.3162 µM): 0.971 | relative viability (AT-7519 + Bortezomib; first compound 1 µM): 0.974 | relative viability (AT-7519 + Foretinib; first compound 0.01 µM): 0.855 | relative viability (AT-7519 + Foretinib; first compound 0.03162 µM): 0.786 | relative viability (AT-7519 + Foretinib; first compound 0.3162 µM): 0.803 | relative viability (AT-7519 + Foretinib; first compound 1 µM): 0.683 | relative viability (AT-7519 + Linsitinib; first compound 0.01 µM): 1.16 | relative viability (AT-7519 + Linsitinib; first compound 0.03162 µM): 0.963 | relative viability (AT-7519 + Linsitinib; first compound 0.3162 µM): 0.917 | relative viability (AT-7519 + Linsitinib; first compound 1 µM): 0.886

NCI-H1666
relative viability ([1]; first compound 0.08 µM): 0.621 | relative viability ([1]; first compound 0.253 µM): 0.628 | relative viability ([1]; first compound 0.8 µM): 0.609 | relative viability ([1]; first compound 2.53 µM): 0.657 | relative viability ([1]; first compound 8 µM): 0.434 | relative viability (AT-7519 + Bortezomib; first compound 0.01 µM): 0.782 | relative viability (AT-7519 + Bortezomib; first compound 0.03162 µM): 0.794 | relative viability (AT-7519 + Bortezomib; first compound 0.3162 µM): 0.733 | relative viability (AT-7519 + Bortezomib; first compound 1 µM): 0.333 | relative viability (AT-7519 + Foretinib; first compound 0.01 µM): 0.839 | relative viability (AT-7519 + Foretinib; first compound 0.03162 µM): 0.77 | relative viability (AT-7519 + Foretinib; first compound 0.3162 µM): 0.927 | relative viability (AT-7519 + Foretinib; first compound 1 µM): 0.647 | relative viability (AT-7519 + Linsitinib; first compound 0.01 µM): 0.727 | relative viability (AT-7519 + Linsitinib; first compound 0.03162 µM): 0.784 | relative viability (AT-7519 + Linsitinib; first compound 0.3162 µM): 0.807 | relative viability (AT-7519 + Linsitinib; first compound 1 µM): 0.376

NCI-H1734
relative viability ([1]; first compound 0.08 µM): 0.263 | relative viability ([1]; first compound 0.253 µM): 0.249 | relative viability ([1]; first compound 0.8 µM): 0.261 | relative viability ([1]; first compound 2.53 µM): 0.289 | relative viability ([1]; first compound 8 µM): 0.238 | relative viability (AT-7519 + Bortezomib; first compound 0.01 µM): 0.782 | relative viability (AT-7519 + Bortezomib; first compound 0.03162 µM): 0.884 | relative viability (AT-7519 + Bortezomib; first compound 0.3162 µM): 0.842 | relative viability (AT-7519 + Bortezomib; first compound 1 µM): 0.442 | relative viability (AT-7519 + Foretinib; first compound 0.01 µM): 0.897 | relative viability (AT-7519 + Foretinib; first compound 0.03162 µM): 0.809 | relative viability (AT-7519 + Foretinib; first compound 0.3162 µM): 0.718 | relative viability (AT-7519 + Foretinib; first compound 1 µM): 0.429 | relative viability (AT-7519 + Linsitinib; first compound 0.01 µM): 0.92 | relative viability (AT-7519 + Linsitinib; first compound 0.03162 µM): 0.874 | relative viability (AT-7519 + Linsitinib; first compound 0.3162 µM): 0.796 | relative viability (AT-7519 + Linsitinib; first compound 1 µM): 0.549

NCI-H1755
relative viability ([1]; first compound 0.08 µM): 0.608 | relative viability ([1]; first compound 0.253 µM): 0.539 | relative viability ([1]; first compound 0.8 µM): 0.555 | relative viability ([1]; first compound 2.53 µM): 0.615 | relative viability ([1]; first compound 8 µM): 0.577 | relative viability (AT-7519 + Bortezomib; first compound 0.01 µM): 0.927 | relative viability (AT-7519 + Bortezomib; first compound 0.03162 µM): 1.09 | relative viability (AT-7519 + Bortezomib; first compound 0.3162 µM): 0.976 | relative viability (AT-7519 + Bortezomib; first compound 1 µM): 0.969 | relative viability (AT-7519 + Foretinib; first compound 0.01 µM): 0.947 | relative viability (AT-7519 + Foretinib; first compound 0.03162 µM): 0.944 | relative viability (AT-7519 + Foretinib; first compound 0.3162 µM): 0.813 | relative viability (AT-7519 + Foretinib; first compound 1 µM): 0.878 | relative viability (AT-7519 + Linsitinib; first compound 0.01 µM): 1 | relative viability (AT-7519 + Linsitinib; first compound 0.03162 µM): 0.993 | relative viability (AT-7519 + Linsitinib; first compound 0.3162 µM): 1.03 | relative viability (AT-7519 + Linsitinib; first compound 1 µM): 0.967
